Measured values reported in patent publication US9789191B2, “Aqueous drug delivery system” (SOLIXA TECHNOLOGIES, INC., priority 2010, dated 2017).

Assay: Comparative accelerated storage study of ASA at 45° C. for 3 weeks (HPLC)
Type: physicochemical
Settings: in distilled water, 143 mg ASA in 8 oz
Description: Accelerated storage studies were conducted to examine the stability of ASA in distilled water, ASA in acidified (1% citric acid) distilled water, and of a molecular inclusion complex of ASA-βCD (in distilled water). Duplicate samples of each treatment were made containing 143 mg of ASA in 8 oz of distilled water. For the treatment containing the ASA-βCD complex, a 2:1 ratio of βCD to ASA was used as described in part I of the prototype formulation procedure outlined above. The treatments were stored at 45° C. for 3 weeks to determine the rate of hydrolysis of ASA to its breakdown product salicylic acid. Analysis of degradation products was performed using an Agilent Technologies 1200 series HPLC with a PDA (photodiode array) detector, incorporating a Phenominex C18-2 column (25 cm×0.39 cm i.d., 5 μm particle size). Solvent system A) H2O, Acetonitrile, Phosphoric Acid (95.45:4.5:0.05), and B) H2O, Acetonitrile, Phosphoric Acid (49.95:50:0.05). Solvent B ramped from 10%-80% over 20 minutes. Stability was verified using peak area, which was used to determine the overall percentage of breakdown of ASA to salicylic acid. […] The sensory profile of the βCD-ASA solution was evaluated.

CC(=O)Oc1ccccc1C(=O)O [ASA, acetylsalicylic acid]
breakdown of ASA to salicylic acid: nearly quantitative breakdown
